Experimental data taken from US20250035576A1, “AUTOMATED OXYGEN-DEPENDENT BLOOD FUNCTION MEASUREMENT SYSTEMS AND METHODS” (FLORIDA ATLANTIC UNIVERSITY BOARD OF TRUSTEES, priority 2023, published 2025).
“Also recorded” adds a separate entry of the source.

How the values were obtained:
sickle cells [1] = test: Microfluidic assay of the efficacy of an anti-sickling oxygen modulator on patient samples; type: cell-based, human; details: blood samples of 5 patients; FIG. 6D
Excerpt: This, however, could not be detected using conventional hematological assay, such as Hb electrophoresis or HPLC.

fetal hemoglobin (HbF) = details: hematological response to HU, literature [38]; cited from earlier work
sickle cells [2] = test: Microfluidic sickle cell rheology assay (occlusion/obstruction at micro-slits) under controlled low O2 tension; type: cell-based, human; details: sickle cells from patients with HU treatment vs without; PaO2 15 mm Hg, flow 60 s; FIG. 6B
Procedure: (§1) A study was conducted to develop and evaluate the exemplary system and method comprising microfluidic assays of sickle cell functional properties to provide quantitative assessments of disease heterogeneity and severity. A microfluidic strategy for on-chip O2 control was developed, which is critical to measure O2-dependent sickle cell functional properties. This method utilizes gas permeability of thin PDMS film (˜150 μm thick) that enables rapid diffusion of O2 at a specific PaO2 value from the gas channel to the cell channel. […]
(§2) Cell sickling events induced by exposing sickle cells to a transient hypoxia (e.g., reduce the atmospheric (atm) PaO2 to a low O2 tension level) are measured under stationary condition (FIG. 5A). […] Sickle cell rheology (deformability and occlusion) are measured under flow condition for 60 s, where sickle cells with extended delay time in HbS polymerization can escape the micro-slits but those containing rigid HbS fibers (undissolved HbS or hypoxia induced HbS fibers) lose their deformability and become trapped at the micro-slits (FIG. 5B). These two aspects of sickle cell behavior measured under controlled O2 tension (in exposure to testing PaO2 15 mm Hg briefly for 60 s) provided quantitative cell functional assessment, which show strong linear correlation to patient's HbS level, as obtained from standard HPLC (FIG. 5C and FIG. 5D). […]

sickle cells [3] = test: Microfluidic cell sickling assay (kinetics of cell sickling) under controlled low O2 tension, cell-imaging analysis; type: cell-based, human; details: sickle cells from patients on HU treatment vs off HU; PaO2 15 mm Hg; FIG. 6A
Procedure: as §1, §2

| SMILES | dose dependence of anti-sickling efficacy, patient-specific response (sickle cells [1]) | HbF level in some patients (fetal hemoglobin (HbF)) | occlusion fraction (obstruction in micro-slits) (sickle cells [2]) | delay time of cell sickling events (sickle cells [3]) |
| --- | --- | --- | --- | --- |
| O=Cc1ccc(CO)o1 [5HMF, 5-(hydroxymethyl) furfural] | patient-specific response; also recorded: dosedependence is similar among 5 patients, but significant variations exist |  |  |  |
| NC(=O)NO [HU, hydroxyurea] |  | up to 40% | much less obstruction | significantly extended |
